8 compounds from DBAASP can be followed below.

Some test systems named below: Micrococcus luteus A270; Escherichia coli SBS 363; Candida albicans MDM8; Escherichia coli W3110; Staphylococcus aureus; Acinetobacter baumannii; Vibrio cholerae O1 Inaba; Escherichia coli O157:H7.
Common to all, as to experiment: ≥ marks a high value that may be exact or a test limit, other limits are often not marked, values filed in µg/mL are converted to µM
Test [1] deals with Staphylococcus aureus ATCC 29213.
The subject of test [2] is Serratia marcescens ATCC 4112.
Test [3] concerns Enterobacter cloacae beta-12.
For test [4], the system named is Bacillus megaterium ATCC 10778.
In test [5] the test system is Candida tropicalis IOC 4560.
In test [6] the test system is Pseudomonas aeruginosa ATCC 27853.
The test system of test [7] is Bacillus subtilis ATCC 6633.
The subject of test [8] is Klebsiella pneumoniae ATCC BAA-1705.
Test [9] relates to Pseudomonas aeruginosa ATCC 9027.
The subject of test [10] is Micrococcus luteus ATCC 9341.
The subject of test [11] is Proteus vulgaris ATCC 6380.
Test [12] has as its system Candida albicans ATCC 36232.
For test [13], the system named is Staphylococcus aureus ATCC 6538.
Test [14] deals with Escherichia coli ATCC 2592.
For test [15], the system named is Candida albicans ATCC 90028.
The subject of test [16] is Acinetobacter baumannii ATCC 19606.
For test [17], the system named is Escherichia coli ATCC 25922.
The subject of test [18] is Staphylococcus aureus ATCC 43300.
In test [19] the test system is Klebsiella pneumoniae ATCC 700603.
Test [20] relates to Staphylococcus aureus SH1000.
Test [21] has as its system Cryptococcus neoformans ATCC 208821.
In test [22] the test system is Enterococcus faecalis ATCC 29212.
Test [23] has as its system Staphylococcus aureus ATCC 25923.
The subject of test [24] is Listeria monocytogenes 10403s.
In test [25] the test system is Shigella sonnei ATCC 11060.
For test [26], the system named is Staphylococcus epidermidis ATCC 12228.
The test system of test [27] is Bacillus cereus ATCC 11778.
Test [28] relates to Salmonella enterica subsp. enterica serovar Typhimurium ATCC 13311.

Values after ≈ are worked out from the molar mass of the structure shown.

With `CC(C)C[C@H](NC(=O)[C@H](C)NC(=O)CNC(=O)[C@H](CC(C)C)NC(=O)[C@@H](N)Cc1ccccc1)C(=O)N[C@@H](Cc1c[nH]c2ccccc12)C(=O)N[C@@H](CC(N)=O)C(=O)N[C@H](C(=O)N[C@@H](C)C(=O)N[C@@H](CCCCN)C(=O)N[C@@H](CCCN=C(N)N)C(=O)N[C@H](C(=O)N[C@@H](Cc1ccccc1)C(N)=O)C(C)C)C(C)C` [FLGALWNVAKRVF], the MIC (as a rule, the lowest concentration that inhibits growth of the organism) came out at 3.1 µM (≈ 4.71 µg/mL) in test [1]; 0.8 µM (≈ 1.22 µg/mL) in test [2]; 1.6 µM (≈ 2.43 µg/mL) in the test on Micrococcus luteus A270; 1.6 µM (≈ 2.43 µg/mL) in the test with Escherichia coli SBS 363; 6.3 µM (≈ 9.58 µg/mL) in test [3]; 0.8 µM (≈ 1.22 µg/mL) in test [4]. Moreover, the MIC in the test on Candida albicans MDM8 was 3.1 µM (≈ 4.71 µg/mL); in [5], 1.6 µM (≈ 2.43 µg/mL); in [6], 12.5 µM (≈ 19 µg/mL); in test [7] it was 1.6 µM (≈ 2.43 µg/mL).

For `CC[C@H](C)[C@H](NC(=O)[C@H](CCCCN)NC(=O)[C@H](CCCCN)NC(=O)[C@H](Cc1ccc(O)cc1)NC(=O)[C@H](CCCCN)NC(=O)[C@H](CC(C)C)NC(=O)[C@H](CC(C)C)NC(=O)[C@H](CCCCN)NC(=O)[C@H](CC(C)C)NC(=O)CNC(=O)[C@H](Cc1c[nH]c2ccccc12)NC(=O)[C@H](CCCCN)NC(=O)[C@H](C)NC(=O)[C@H](Cc1c[nH]c2ccccc12)NC(=O)[C@H](CCCN=C(N)N)NC(=O)[C@@H](N)Cc1c[nH]c2ccccc12)C(=O)N[C@@H](Cc1ccc(O)cc1)C(=O)O` [WRWAKWGLKLLKYKKIY], the MIC in test [8] came to 2 µM (≈ 4.56 µg/mL); in the test with Escherichia coli W3110 it was 1 µM (≈ 2.28 µg/mL).

Consider `CC(C)C[C@H](NC(=O)[C@H](CCCCN)NC(=O)[C@H](Cc1ccccc1)NC(=O)[C@H](CC(C)C)NC(=O)[C@@H](NC(=O)[C@H](CCCCN)NC(=O)[C@@H](N)CCCCN)C(C)C)C(=O)N[C@@H](CCCCN)C(=O)N[C@@H](Cc1ccccc1)C(=O)N[C@@H](CCCCN)C(N)=O` [KKVLFKLKFK], for which the MIC in test [9] was 1.22 µM (≈ 1.56 µg/mL); in the test with Staphylococcus aureus, 19.6 µM (≈ 25 µg/mL); in [10], 2.44 µM (≈ 3.12 µg/mL); in test [11], not below 78.2 µM; in [12] it was 2.44 µM (≈ 3.12 µg/mL); in [13], 9.78 µM (≈ 12.5 µg/mL). The MIC in test [14] came out at 2.44 µM (≈ 3.12 µg/mL).

For the compound `CC(C)C[C@H](NC(=O)CN)C(=O)N[C@@H](Cc1ccccc1)C(=O)N[C@@H](CCCCN)C(=O)N[C@@H](CC(C)C)C(=O)N[C@@H](CC(C)C)C(=O)N[C@@H](CCCCN)C(=O)N[C@@H](CCCCN)C(=O)N[C@@H](CC(C)C)C(=O)N[C@@H](CC(C)C)C(=O)N[C@@H](CCCCN)C(=O)N[C@@H](CC(C)C)C(=O)N[C@@H](CC(C)C)C(=O)N[C@@H](CCCCN)C(N)=O` [GLFKLLKKLLKLLK], the MIC in [15] is 20 µM (≈ 33.1 µg/mL); in test [16], more than 20 µM; in [17] it was more than 20 µM; in [18], more than 20 µM; in test [19] it was more than 20 µM; in test [6], more than 20 µM. The MIC was not below 33 µM in test [20] and 20 µM (≈ 33.1 µg/mL) in test [21].

Take `CC[C@H](C)[C@H](NC(=O)[C@H](CCCN=C(N)N)NC(=O)[C@H](CCCCN)NC(=O)[C@H](C)NC(=O)[C@@H](NC(=O)[C@@H](N)CCCCN)[C@@H](C)CC)C(=O)N[C@@H](Cc1c[nH]c2ccccc12)C(=O)N[C@@H](CCCCN)C(=O)N[C@H](C(=O)N[C@@H](CC(C)C)C(=O)N[C@@H](CCCN=C(N)N)C(=O)N[C@@H](CCCN=C(N)N)C(=O)N[C@@H](CCCN=C(N)N)C(=O)N[C@@H](CC(C)C)C(N)=O)[C@@H](C)CC` [KIAKRIWKILRRRL]: the MIC in [22] was found to be 67.6 µM (≈ 125 µg/mL); in test [23], 8.45 µM (≈ 15.6 µg/mL); in test [24], 1.05 µM (≈ 1.95 µg/mL); in test [17], 8.45 µM (≈ 15.6 µg/mL); in the test on Acinetobacter baumannii, 2.11 µM (≈ 3.91 µg/mL); against Vibrio cholerae O1 Inaba, 4.22 µM (≈ 7.81 µg/mL). The MIC is 2.11 µM (≈ 3.91 µg/mL) in [25]; 2.11 µM (≈ 3.91 µg/mL) in [26]; not below 33.8 µM against Escherichia coli O157:H7; 4.22 µM (≈ 7.81 µg/mL) in [27]; 1.05 µM (≈ 1.95 µg/mL) in test [28]; 2.11 µM (≈ 3.91 µg/mL) in test [6].

In the case of `CC[C@H](C)[C@H](N)C(=O)N[C@@H](CC(C)C)C(=O)N[C@@H](Cc1c[nH]c2ccccc12)C(=O)N[C@@H](C)C(=O)N[C@@H](CS)C(=O)N[C@@H](Cc1c[nH]c2ccccc12)C(=O)NCC(=O)N[C@@H](CC(C)C)C(=O)N[C@@H](CCCCN)C(=O)N[C@@H](CC(C)C)C(=O)N[C@@H](CC(C)C)C(=O)N[C@@H](CCCCN)C(=O)N[C@@H](Cc1ccc(O)cc1)C(=O)N[C@@H](CCCCN)C(=O)N[C@@H](CCCCN)C(=O)N[C@H](C(=O)N[C@@H](Cc1ccc(O)cc1)C(=O)O)[C@@H](C)CC` [ILWACWGLKLLKYKKIY], the MIC in test [8] is not below 128 µM; against Escherichia coli W3110, 16 µM (≈ 34.2 µg/mL).

With `CC(C)C[C@H](NC(=O)[C@H](CCCCN)NC(=O)[C@H](Cc1ccccc1)NC(=O)[C@H](CC(C)C)NC(=O)[C@H](CC(C)C)NC(=O)[C@H](CCCCN)NC(=O)[C@@H](N)CCCCN)C(=O)N[C@@H](CCCCN)C(=O)N[C@@H](Cc1ccccc1)C(=O)N[C@@H](CCCCN)C(N)=O` [KKLLFKLKFK], the MIC was 1.21 µM (≈ 1.56 µg/mL) in test [9]; 38.7 µM (≈ 50 µg/mL) against Staphylococcus aureus; 2.41 µM (≈ 3.12 µg/mL) in [10]; not below 77.4 µM in test [11]; 2.41 µM (≈ 3.12 µg/mL) in [12]; 9.67 µM (≈ 12.5 µg/mL) in test [13]. Besides, the MIC in test [14] was found to be 2.41 µM (≈ 3.12 µg/mL).

For `CC(C)C[C@H](NC(=O)[C@H](C)NC(=O)CNC(=O)[C@H](CC(C)C)NC(=O)[C@@H](N)Cc1ccccc1)C(=O)N[C@@H](Cc1c[nH]c2ccccc12)C(=O)N[C@@H](CC(N)=O)C(=O)N[C@H](C(=O)N[C@@H](CC(C)C)C(=O)N[C@@H](CCCCN)C(=O)N[C@@H](CO)C(=O)N[C@H](C(=O)N[C@@H](Cc1ccccc1)C(N)=O)C(C)C)C(C)C` [FLGALWNVLKSVF], the MIC in test [1] is 0.8 µM (≈ 1.19 µg/mL); in test [2], 0.4 µM (≈ 0.597 µg/mL); against Micrococcus luteus A270, 0.4 µM (≈ 0.597 µg/mL); in the test with Escherichia coli SBS 363 it was 0.8 µM (≈ 1.19 µg/mL); in [3] it was not below 50 µM; in test [4] it was 3.1 µM (≈ 4.63 µg/mL). Also, the MIC against Candida albicans MDM8 was 3.1 µM (≈ 4.63 µg/mL); in test [5] it was 3.1 µM (≈ 4.63 µg/mL); in [6], more than 50 µM; in test [7] it was 0.8 µM (≈ 1.19 µg/mL).
